Measured values published in US8192962B2, “Processes for detecting toxic substances” (Daikin Industries, Ltd., priority 2001, dated 2012).

Test system: DNA repair protein genes
Assay: DNA chip mRNA expression in yeast, DNA repair protein genes (Table 3)
Format: cell-based, Saccharomyces cerevisiae S288C
Conditions: incubated two hours, concentrations as in the 1st table
Summary of the method: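 Whole-genome yeast DNA chip hybridization (65° C., >12 h) of Cy-labeled cDNA from S288C cells exposed 2 h at 25° C. to a sub-lethal toxicant dose in YPD; value is intensity relative to chemical-free control.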

[Cl][Hg][Cl] [(3), HgCl2]
The level of expressed mRNA in the presence of chemical substance/The level of expressed mRNA in the absence of chemical substance (yeast gene YAL015C): 1.7
The level of expressed mRNA in the presence of chemical substance/The level of expressed mRNA in the absence of chemical substance (yeast gene YAR007C): 0.8
The level of expressed mRNA in the presence of chemical substance/The level of expressed mRNA in the absence of chemical substance (yeast gene YBL019W): 0.7
The level of expressed mRNA in the presence of chemical substance/The level of expressed mRNA in the absence of chemical substance (yeast gene YBR073W): 0.9
The level of expressed mRNA in the presence of chemical substance/The level of expressed mRNA in the absence of chemical substance (yeast gene YBR272C): 1.3
The level of expressed mRNA in the presence of chemical substance/The level of expressed mRNA in the absence of chemical substance (yeast gene YCR014C): 0.8
The level of expressed mRNA in the presence of chemical substance/The level of expressed mRNA in the absence of chemical substance (yeast gene YDL017W): 1.2
The level of expressed mRNA in the presence of chemical substance/The level of expressed mRNA in the absence of chemical substance (yeast gene YDL059C): 1.4
The level of expressed mRNA in the presence of chemical substance/The level of expressed mRNA in the absence of chemical substance (yeast gene YDL200C): 1.2
The level of expressed mRNA in the presence of chemical substance/The level of expressed mRNA in the absence of chemical substance (yeast gene YDR054C): 0.7
The level of expressed mRNA in the presence of chemical substance/The level of expressed mRNA in the absence of chemical substance (yeast gene YDR369C): 2.4
The level of expressed mRNA in the presence of chemical substance/The level of expressed mRNA in the absence of chemical substance (yeast gene YEL019C): 0.3
The level of expressed mRNA in the presence of chemical substance/The level of expressed mRNA in the absence of chemical substance (yeast gene YEL037C): 0.9
The level of expressed mRNA in the presence of chemical substance/The level of expressed mRNA in the absence of chemical substance (yeast gene YER162C): 1.0
The level of expressed mRNA in the presence of chemical substance/The level of expressed mRNA in the absence of chemical substance (yeast gene YFL014W): 5.7
The level of expressed mRNA in the presence of chemical substance/The level of expressed mRNA in the absence of chemical substance (yeast gene YGL058W): 0.6
The level of expressed mRNA in the presence of chemical substance/The level of expressed mRNA in the absence of chemical substance (yeast gene YGL091C): 1.0
The level of expressed mRNA in the presence of chemical substance/The level of expressed mRNA in the absence of chemical substance (yeast gene YGL127C): 1.3
The level of expressed mRNA in the presence of chemical substance/The level of expressed mRNA in the absence of chemical substance (yeast gene YGL163C): 0.6
The level of expressed mRNA in the presence of chemical substance/The level of expressed mRNA in the absence of chemical substance (yeast gene YGL249W): 0.5
The level of expressed mRNA in the presence of chemical substance/The level of expressed mRNA in the absence of chemical substance (yeast gene YGR180C): 1.9
The level of expressed mRNA in the presence of chemical substance/The level of expressed mRNA in the absence of chemical substance (yeast gene YGR231C): 0.7
The level of expressed mRNA in the presence of chemical substance/The level of expressed mRNA in the absence of chemical substance (yeast gene YGR258C): 0.7
The level of expressed mRNA in the presence of chemical substance/The level of expressed mRNA in the absence of chemical substance (yeast gene YHR164C): 0.9
The level of expressed mRNA in the presence of chemical substance/The level of expressed mRNA in the absence of chemical substance (yeast gene YIL036W): 1.3
The level of expressed mRNA in the presence of chemical substance/The level of expressed mRNA in the absence of chemical substance (yeast gene YIL072W): 1.1
The level of expressed mRNA in the presence of chemical substance/The level of expressed mRNA in the absence of chemical substance (yeast gene YIL143C): 1.1
The level of expressed mRNA in the presence of chemical substance/The level of expressed mRNA in the absence of chemical substance (yeast gene YIL153W): 1.3
The level of expressed mRNA in the presence of chemical substance/The level of expressed mRNA in the absence of chemical substance (yeast gene YIR002C): 0.5
The level of expressed mRNA in the presence of chemical substance/The level of expressed mRNA in the absence of chemical substance (yeast gene YJL026W): 2.9
The level of expressed mRNA in the presence of chemical substance/The level of expressed mRNA in the absence of chemical substance (yeast gene YJR046W): 1.2
The level of expressed mRNA in the presence of chemical substance/The level of expressed mRNA in the absence of chemical substance (yeast gene YJR052W): 1.1
The level of expressed mRNA in the presence of chemical substance/The level of expressed mRNA in the absence of chemical substance (yeast gene YKL145W): 1.2
The level of expressed mRNA in the presence of chemical substance/The level of expressed mRNA in the absence of chemical substance (yeast gene YLR103C): 1.1
The level of expressed mRNA in the presence of chemical substance/The level of expressed mRNA in the absence of chemical substance (yeast gene YLR233C): 2.0
The level of expressed mRNA in the presence of chemical substance/The level of expressed mRNA in the absence of chemical substance (yeast gene YLR288C): 1.6
The level of expressed mRNA in the presence of chemical substance/The level of expressed mRNA in the absence of chemical substance (yeast gene YML032C): 1.1
The level of expressed mRNA in the presence of chemical substance/The level of expressed mRNA in the absence of chemical substance (yeast gene YML058W): 5.8
The level of expressed mRNA in the presence of chemical substance/The level of expressed mRNA in the absence of chemical substance (yeast gene YMR035W): 1.5
The level of expressed mRNA in the presence of chemical substance/The level of expressed mRNA in the absence of chemical substance (yeast gene YMR072W): 1.4
The level of expressed mRNA in the presence of chemical substance/The level of expressed mRNA in the absence of chemical substance (yeast gene YMR096W): 1.1
The level of expressed mRNA in the presence of chemical substance/The level of expressed mRNA in the absence of chemical substance (yeast gene YMR284W): 0.5
The level of expressed mRNA in the presence of chemical substance/The level of expressed mRNA in the absence of chemical substance (yeast gene YNL213C): 0.9
The level of expressed mRNA in the presence of chemical substance/The level of expressed mRNA in the absence of chemical substance (yeast gene YNL250W): 0.8
The level of expressed mRNA in the presence of chemical substance/The level of expressed mRNA in the absence of chemical substance (yeast gene YNL261W): 0.6
The level of expressed mRNA in the presence of chemical substance/The level of expressed mRNA in the absence of chemical substance (yeast gene YNL312W): 1.6
The level of expressed mRNA in the presence of chemical substance/The level of expressed mRNA in the absence of chemical substance (yeast gene YOL043C): 0.8
The level of expressed mRNA in the presence of chemical substance/The level of expressed mRNA in the absence of chemical substance (yeast gene YOR005C): 1.0
The level of expressed mRNA in the presence of chemical substance/The level of expressed mRNA in the absence of chemical substance (yeast gene YOR386W): 1.3
The level of expressed mRNA in the presence of chemical substance/The level of expressed mRNA in the absence of chemical substance (yeast gene YPL022W): 0.7
The level of expressed mRNA in the presence of chemical substance/The level of expressed mRNA in the absence of chemical substance (yeast gene YPL164C): 1.1
The level of expressed mRNA in the presence of chemical substance/The level of expressed mRNA in the absence of chemical substance (yeast gene YPL194W): 0.4
The level of expressed mRNA in the presence of chemical substance/The level of expressed mRNA in the absence of chemical substance (yeast gene YPR025C): 0.6
